# Source: publication PMC10893631, “Receptor-based pharmacophore modeling, molecular docking, synthesis and biological evaluation of novel VEGFR-2, FGFR-1, and BRAF multi-kinase inhibitors” (BMC Chemistry, 2024)
# How the values were obtained:
# Assay in all cases: NCI SRB growth inhibition (single dose 10 µM / five-dose)
# Format in all cases: cell-based, human
# [1] = tested on: NCI-H322M; conditions: Homo sapiens; for inhibition at 10 µM: NCI-H322M (Non-small cell lung cancer), read-out: GI%; for GI50: NCI-H322M, Non-small cell lung cancer, five-dose
# Summary of the method: (§1)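 SRB protein stain of fixed cells; compounds tested at one dose (10 µM) or five serial dilutions (10-fold or ½ log), diluted from DMSO stock. Cells plated 24 h before dosing, with a time-zero plate fixed in TCA. Percent growth derived from Tz, control and test absorbances; TGI taken where Ti = Tz.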
# [2] = tested on: CCRF-CEM; conditions: Homo sapiens; for inhibition at 10 µM: CCRF-CEM (Leukemia), read-out: GI%; for GI50: CCRF-CEM, Leukemia, five-dose
# Summary of the method: as §1
# [3] = tested on: PC-3; conditions: Homo sapiens; PC-3 (Prostate cancer), 10 µM; read-out: GI%
# Summary of the method: as §1
# [4] = tested on: BT-549; conditions: Homo sapiens; for inhibition at 10 µM: BT-549 (Breast cancer), read-out: GI%; for GI50: BT-549, Breast cancer, five-dose
# Summary of the method: as §1
# [5] = tested on: SF-268; conditions: Homo sapiens; for inhibition at 10 µM: SF-268 (CNS cancer), read-out: GI%; for GI50: SF-268, CNS cancer, five-dose
# Summary of the method: as §1
# [6] = tested on: HL-60(TB); conditions: Homo sapiens; for inhibition at 10 µM: HL-60(TB) (Leukemia), read-out: GI%; for GI50: HL-60(TB), Leukemia, five-dose
# Summary of the method: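 Percent growth relative to untreated control and time-zero cell mass, determined by SRB. Five drug levels (10-fold or half-log steps) plus control; time-zero plates fixed 24 h after seeding.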
# [7] = tested on: HOP-62; conditions: Homo sapiens; for inhibition at 10 µM: HOP-62 (Non-small cell lung cancer), read-out: GI%; for GI50: HOP-62, Non-small cell lung cancer, five-dose
# Summary of the method: as §1
# [8] = tested on: A498; conditions: Homo sapiens; for inhibition at 10 µM: A498 (Renal cancer), read-out: GI%; for GI50: A498, Renal cancer, five-dose
# Summary of the method: as §1
# [9] = tested on: CAKI-1; conditions: Homo sapiens; for inhibition at 10 µM: CAKI-1 (Renal cancer), read-out: GI%; for GI50: CAKI-1, Renal cancer, five-dose
# Summary of the method: as §1
# [10] = tested on: MCF7; conditions: Homo sapiens; for inhibition at 10 µM: MCF7 (Breast cancer), read-out: GI%; for GI50: MCF7, Breast cancer, five-dose
# Summary of the method: as §1
# [11] = tested on: HS 578 T; conditions: Homo sapiens; for inhibition at 10 µM: HS 578 T (Breast cancer), read-out: GI%; for GI50: HS 578 T, Breast cancer, five-dose
# Summary of the method: as §1
# [12] = tested on: MDA-MB-231/ATCC; conditions: Homo sapiens; for inhibition at 10 µM: MDA-MB-231/ATCC (Breast cancer), read-out: GI%; for GI50: MDA-MB-231/ATCC, Breast cancer, five-dose
# Summary of the method: as §1
# [13] = tested on: OVCAR-8; conditions: Homo sapiens; for inhibition at 10 µM: OVCAR-8 (Ovarian cancer), read-out: GI%; for GI50: OVCAR-8, Ovarian cancer, five-dose
# Summary of the method: as §1
# [14] = tested on: OVCAR-5; conditions: Homo sapiens; for inhibition at 10 µM: OVCAR-5 (Ovarian cancer), read-out: GI%; for GI50: OVCAR-5, Ovarian cancer, five-dose
# Summary of the method: as §1
# [15] = tested on: ACHN; conditions: Homo sapiens; for inhibition at 10 µM: ACHN (Renal cancer), read-out: GI%; for GI50: ACHN, Renal cancer, five-dose
# Summary of the method: as §1
# [16] = tested on: NCI-H23; conditions: Homo sapiens; for inhibition at 10 µM: NCI-H23 (Non-small cell lung cancer), read-out: GI%; for GI50: NCI-H23, Non-small cell lung cancer, five-dose
# Summary of the method: as §1
# [17] = tested on: HCT-15; conditions: Homo sapiens; for inhibition at 10 µM: HCT-15 (Colon cancer), read-out: GI%; for GI50: HCT-15, Colon cancer, five-dose
# Summary of the method: as §1
# [18] = tested on: SR; conditions: Homo sapiens; for inhibition at 10 µM: SR (Leukemia), read-out: GI%; for GI50: SR, Leukemia, five-dose
# Summary of the method: as §1
# [19] = tested on: SNB-19; conditions: Homo sapiens; for inhibition at 10 µM: SNB-19 (CNS cancer), read-out: GI%; for GI50: SNB-19, CNS cancer, five-dose
# Summary of the method: as §1
# [20] = tested on: HCC-2998; conditions: Homo sapiens; for inhibition at 10 µM: HCC-2998 (Colon cancer), read-out: GI%; for GI50: HCC-2998, Colon cancer, five-dose
# Summary of the method: as §1
# [21] = tested on: A549/ATCC; conditions: Homo sapiens; for inhibition at 10 µM: A549/ATCC (Non-small cell lung cancer), read-out: GI%; for GI50: A549/ATCC, Non-small cell lung cancer, five-dose
# Summary of the method: as §1
# [22] = tested on: SK-MEL-2; conditions: Homo sapiens; for inhibition at 10 µM: SK-MEL-2 (Melanoma), read-out: GI%; for GI50: SK-MEL-2, Melanoma, five-dose
# Summary of the method: as §1
# [23] = tested on: MOLT-4; conditions: Homo sapiens; for inhibition at 10 µM: MOLT-4 (Leukemia), read-out: GI%; for GI50: MOLT-4, Leukemia, five-dose
# Summary of the method: as §1
# [24] = tested on: HT29; conditions: Homo sapiens, HT-29; for inhibition at 10 µM: HT29 (Colon cancer), read-out: GI%; for GI50: HT29, Colon cancer, five-dose
# Summary of the method: as §1
# [25] = tested on: LOX IMVI; conditions: Homo sapiens; for inhibition at 10 µM: LOX IMVI (Melanoma), read-out: GI%; for GI50: LOX IMVI, Melanoma, five-dose
# Summary of the method: as §1
# [26] = tested on: UACC-257; conditions: Homo sapiens; for inhibition at 10 µM: UACC-257 (Melanoma), read-out: GI%; for GI50: UACC-257, Melanoma, five-dose
# Summary of the method: as §1
structure (smiles),measurement,setting,value
"COc1ccc(-c2nc3cc(C(=O)NN=Cc4cccc(OC)c4O)ccc3[nH]2)cc1 [8k, N'-(2-Hydroxy-3-methoxybenzylidene)-2-(4-methoxyphenyl)-1H-benzo[d]imidazole-5-carbohydrazide]",inhibition at 10 µM,[1],95.9%
same,GI50,[1],3.04 µM
same,inhibition at 10 µM,[2],> 100%
same,GI50,[2],1.05 µM
same,inhibition at 10 µM,[3],87.9%
same,inhibition at 10 µM,[4],> 100%
same,GI50,[4],2.85 µM
same,inhibition at 10 µM,[5],> 100%
same,GI50,[5],2.16 µM
same,inhibition at 10 µM,[6],> 100%
same,GI50,[6],7.66 µM
same,inhibition at 10 µM,[7],> 100%
same,GI50,[7],3.11 µM
same,inhibition at 10 µM,[8],< 5%
same,GI50,[8],> 100 µM
same,inhibition at 10 µM,[9],84.6%
same,GI50,[9],3.64 µM
same,inhibition at 10 µM,[10],> 100%
same,GI50,[10],1.72 µM
same,inhibition at 10 µM,[11],89.3%
same,GI50,[11],2.22 µM
same,inhibition at 10 µM,[12],97.7%
same,GI50,[12],2.8 µM
same,inhibition at 10 µM,[13],> 100%
same,GI50,[13],2.71 µM
same,inhibition at 10 µM,[14],69.5%
same,GI50,[14],7.72 µM
same,inhibition at 10 µM,[15],87.7%
same,GI50,[15],4.19 µM
same,inhibition at 10 µM,[16],> 100%
same,GI50,[16],2.14 µM
same,inhibition at 10 µM,[17],78.1%
same,GI50,[17],3.35 µM
same,inhibition at 10 µM,[18],> 100%
same,GI50,[18],2.06 µM
same,inhibition at 10 µM,[19],> 100%
same,GI50,[19],3.33 µM
same,inhibition at 10 µM,[20],> 100%
same,GI50,[20],2.33 µM
same,inhibition at 10 µM,[21],76.7%
same,GI50,[21],9.04 µM
same,inhibition at 10 µM,[22],39.1%
same,GI50,[22],6.3 µM
same,inhibition at 10 µM,[23],> 100%
same,GI50,[23],3.8 µM
same,inhibition at 10 µM,[24],> 100%
same,GI50,[24],3.67 µM
same,inhibition at 10 µM,[25],> 100%
same,GI50,[25],2.34 µM
same,inhibition at 10 µM,[26],> 100%
same,GI50,[26],3.43 µM
"COc1cccc(C=NNC(=O)c2ccc3[nH]c(-c4ccc(Cl)cc4)nc3c2)c1 [8q, 2-(4-Chlorophenyl)-N'-(3-methoxybenzylidene)-1H-benzo[d]imidazole-5-carbohydrazide]",inhibition at 10 µM,[1],> 100%
same,GI50,[1],3.57 µM
same,inhibition at 10 µM,[2],47%
same,GI50,[2],1.95 µM
same,inhibition at 10 µM,[3],> 100%
same,inhibition at 10 µM,[4],6.97%
same,GI50,[4],10.1 µM
same,inhibition at 10 µM,[5],> 100%
same,GI50,[5],2.18 µM
same,inhibition at 10 µM,[6],50.7%
same,GI50,[6],19.5 µM
same,inhibition at 10 µM,[7],> 100%
same,GI50,[7],1.92 µM
same,inhibition at 10 µM,[8],> 100%
same,GI50,[8],15.3 µM
same,inhibition at 10 µM,[9],> 100%
same,GI50,[9],3.84 µM
same,inhibition at 10 µM,[10],> 100%
same,GI50,[10],2.57 µM
same,inhibition at 10 µM,[11],> 100%
same,GI50,[11],2.71 µM
same,inhibition at 10 µM,[12],> 100%
same,GI50,[12],1.89 µM
same,inhibition at 10 µM,[13],> 100%
same,GI50,[13],2.69 µM
same,inhibition at 10 µM,[14],> 100%
same,GI50,[14],5.35 µM
same,inhibition at 10 µM,[15],> 100%
same,GI50,[15],4.21 µM
same,inhibition at 10 µM,[16],> 100%
same,GI50,[16],2.2 µM
same,inhibition at 10 µM,[17],63%
same,GI50,[17],5.52 µM
same,inhibition at 10 µM,[18],> 100%
same,GI50,[18],4.15 µM
same,inhibition at 10 µM,[19],> 100%
same,GI50,[19],2.17 µM
same,inhibition at 10 µM,[20],79.6%
same,GI50,[20],4.42 µM
same,inhibition at 10 µM,[21],> 100%
same,GI50,[21],3.22 µM
same,inhibition at 10 µM,[22],> 100%
same,GI50,[22],3.07 µM
same,inhibition at 10 µM,[23],71.6%
same,GI50,[23],5.96 µM
same,inhibition at 10 µM,[24],> 100%
same,GI50,[24],2.38 µM
same,inhibition at 10 µM,[25],> 100%
same,GI50,[25],1.82 µM
same,inhibition at 10 µM,[26],> 100%
same,GI50,[26],4.8 µM
